Laboratory results: publication PMC5393024, “Discovery and characterization of natural tropolones as inhibitors of the antibacterial target CapF from Staphylococcus aureus” (Scientific Reports, 2015)

Assays:
[1] = target: holo-CapF (reconstituted with Zn^2+) (Staphylococcus aureus, UniProt A0A0H3JP37); assay: ITC binding to CapF reconstituted with Zn2+ (holo-CapF)
From the text: Because tropolone and its analogs have been described as metal chelators in proteins, we anticipated that binding of the inhibitor to CapF is governed by the Zn^2+ ion present in the cupin domain[12]. To confirm this hypothesis, we performed two different types of experiments. First, we determined the binding properties of 3-isopropenyl-tropolone to apo-CapF (i.e. Zn^2+-depleted CapF) and to holo-CapF (reconstituted with Zn^2+) by isothermal titration calorimetry (ITC). The stoichiometry is consistent with a 1:1 binding model.
(§1) Figure 3 Binding of 3-isopropenyl-tropolone to CapF requires Zn^2+. CapF (150 μM) reconstituted with Zn^2+ was titrated with 1.65 mM inhibitor in the absence (a) or the presence (b) of 1 mM EDTA. The upper panels correspond to the titration data, and the lower panels to the integrated binding isotherms. (c) Binding competition assay. CapF (1.0 μM) reconstituted with Zn^2+ in the presence of the Zn^2+-sensitive dye FluoZin-3 (1.0 μM) was titrated with 3-isopropenyl-tropolone (λEX = 490 nm; λEM = 520 nm).
Binding constants and thermodynamic parameters of the interaction between CapF and fragment compounds were determined with an iTC200 instrument (GE Healthcare) at 25 °C. Samples were equilibrated in a buffer composed of 10 mM HEPES (pH 7.4) and 150 mM NaCl supplemented with 5% (v/v) DMSO. CapF at 150–270 μM was titrated with compounds at 0.5–1.65 mM. Analysis of the data was performed with ORIGIN7 using a one-site binding model.
Figure S8. Binding isotherms of compounds with CapF as determined by ITC. (a) tropone, (b) 2-Cl-tropone, (c) tropolone, (d) 4-isopropyl-tropolone. Concentration of CapF in the cell was 150 µM, except in panel (a) where it was 270 µM. Concentration of compounds was 1.65 mM, except in panel (a) where it was 0.5 mM. Titrations were performed in an iTC200 instrument at 25 °C.
Data analysis was carried out with ORIGIN.

CapF = assay: SPR binding to immobilized CapF; set-up: species or system Staphylococcus aureus; conditions: 25 °C
From the text: To identify small-molecule inhibitors of CapF we employed fragment-based methodologies (Supplementary Information Figure S1)[13][14]. A fragment library consisting of 1,994 compounds was obtained from the Drug Discovery Initiative program (The University of Tokyo, see the Methods section for an brief description of the features of this library). This library was employed to screen for potential inhibitors of CapF using the technique of surface plasmon resonance (SPR). This screening methodology identified compounds with the ability to bind to the target protein but not by their inhibitory potency. Inhibition was only assessed with the selected hit compound using two separate enzymatic assays (see below). To maximize the sensitivity of the SPR signal the microtiter-based assay mode was employed. The values of the parameters CV (1.0%) and Z-factor (0.93) were monitored throughout the screen. […]
A total of 15 compounds selected from the library screening were next evaluated with SPR at three different concentrations (100 μM, 10 μM, and 1 μM) to detect compounds giving false positive signals, which are generally known as nonspecific and promiscuous binders. […] Lastly, we determined the binding affinity of these five compounds for CapF with SPR. […]

[2] = test system: CapF reconstituted with Zn^2+; assay: FluoZin-3 binding competition assay; set-up: species or system Staphylococcus aureus
Protocol: as §1
Second, the fluorescence of the Zn^2+-specific indicator FluoZin-3[19][20] was examined in the presence of CapF. The signal of FluoZin-3 increases dramatically in the presence of Zn^2+ ions when the metal is accessible to the dye. […] In contrast, the fluorescence of FluoZin-3 with apo-CapF, or with holo-CapF in the presence of 3-isopropenyl-tropolone, was negligible.
Fluorescence measurements were carried out using the Zn^2+-sensitive dye FluoZin-3 (Life Technologies) in a buffer composed of 10 mM HEPES, 150 mM NaCl (pH 7.4) supplemented with 5% (v/v) DMSO at 25 °C. The fluorescence intensities were measured in a plate reader (PHERAstar, BMG Labtech, Durham, NC) with excitation and emission wavelengths set to 490 nm and 520 nm, respectively.
Figure S3. Zn2+ governs the binding of inhibitor to CapF. […]
from ZnCl2) with 1.65 mM 3-isopropenyl-tropolone. (b) Fluorescence of the Zn2+-sensitive dye […]

WT CapF = assay: DSC thermal stability of WT CapF; format: binding, Staphylococcus aureus; conditions: 24 μM protein, 240 μM inhibitor
Protocol: Thermal stability of CapF was examined by DSC in a ultrasensitive VP-capillary micro-calorimeter (Microcal). Prior to the experiment the protein was equilibrated in a buffer composed of 50 mM HEPES (pH 7.5), 50 mM NaCl and 5% DMSO. The concentration of protein and inhibitor were adjusted to 24 μM and 240 μM, respectively. The samples were heated between 10 and 110 °C at a scan rate of 1 °C/min. Data analysis was carried out with ORIGIN7 using a two-state transition model.

Chain of holo-CapF (reconstituted with Zn^2+) (A0A0H3JP37 entry or part of it): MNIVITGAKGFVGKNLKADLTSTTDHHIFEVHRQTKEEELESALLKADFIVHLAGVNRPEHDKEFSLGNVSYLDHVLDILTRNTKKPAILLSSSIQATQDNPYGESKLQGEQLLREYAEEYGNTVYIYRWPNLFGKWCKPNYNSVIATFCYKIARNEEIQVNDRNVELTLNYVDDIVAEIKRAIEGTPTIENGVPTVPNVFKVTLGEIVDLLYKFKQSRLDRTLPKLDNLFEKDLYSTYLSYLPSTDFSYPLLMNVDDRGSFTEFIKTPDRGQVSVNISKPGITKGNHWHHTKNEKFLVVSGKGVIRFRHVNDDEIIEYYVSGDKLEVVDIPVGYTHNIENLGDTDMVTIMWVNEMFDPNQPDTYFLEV

Question: `C=C(C)c1ccccc(=O)c1O` [3-isopropenyl-tropolone] was tested. Which Kd [1] did it give?
Answer: 27 ± 12 µM

Question: And the “n (binding stoichiometry)” value ([1]; ITC, 25 °C)?
Answer: 1.2 ± 0.1

Question: And the “ΔH°” value ([1]; ITC, 25 °C)?
Answer: -3.4 ± 0.9 kcal/mol

Question: And the “−TΔS°” value ([1]; ITC, 25 °C)?
Answer: -2.8 ± 1.1 kcal/mol

Question: What about the “ligand efficiency (LE = −ΔG/HAC)” value ([1]; from ITC binding free energy) of the same molecule?
Answer: 0.52 kcal/mol

Question: And the “binding affinity for CapF with SPR” value (CapF)?
Answer: sub-millimolar

Question: And the “inflexion point of FluoZin-3 fluorescence signal vs concentration of compound” value ([2]; CapF 1.0 μM, FluoZin-3 1.0 μM, 25 °C)?
Answer: 51 µM

Question: And the “fluorescence of FluoZin-3 with holo-CapF in the presence of compound” value ([2]; CapF 1 µM, compound 1.0 mM)?
Answer: negligible

Question: And the “ΔTM (decrease in thermal stability)” value (WT CapF)?
Answer: 5.2 ± 0.4 °C

Question: And the TM (WT CapF; WT CapF alone 59.9 ± 0.2)?
Answer: 54.7 ± 0.2 °C
